In patent publication USRE48335E1, “Polymyxin derivatives as antimicrobial compounds” (priority 2014, dated 2020):
≈ marks a conversion by molar mass, not a printed value. Positions of bridges follow the written chain, without caps; N, C: chain ends. Non-standard residues stand in square brackets, D forms with d. Residues, ends and D or L forms follow the SMILES beside them. *: point of attachment. Benzoyl(3-CF3) = O=C(c1cccc(C(F)(F)F)c1)*; X37 = O=C(c1ccc(C(F)(F)F)cc1F)*; Octanoyl = CCCCCCCC(=O)*; Orn = NCCC[C@H](N)C(=O)O; Dab = NCC[C@H](N)C(=O)O; Abu = CC[C@H](N)C(=O)O; Dap = NC[C@H](N)C(=O)O

Legend:
[1] = test system: Acinetobacter baumannii
Outline: (§1)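 Using polymyxin B sulphate as comparator control, the trifluoroacetate-salt lipopeptides were assayed in CAMHB by broth microdilution to CLSI M100-S18, and MICs recorded.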

[2] = test system: Enterobacter cloacae
Outline: as §1

[3] = test system: Klebsiella pneumoniae
Outline: as §1

[4] = test system: Pseudomonas aeruginosa
Outline: as §1

Row | Compound | MIC [1] [µg/mL] | MIC [3] [µg/mL] | MIC [4] [µg/mL] | Minimum inhibitory concentration (MIC), Ab ATCC 17978 [1] [µg/mL] | Minimum inhibitory concentration (MIC), Ab ATCC 19606 [1] [µg/mL] | Minimum inhibitory concentration (MIC), Ab FADDI-AB034 [1] [µg/mL] | Minimum inhibitory concentration (MIC), Ec FADDI-EC001 [2] [µg/mL] | Minimum inhibitory concentration (MIC), Ec FADDI-EC003 [2] [µg/mL] | Minimum inhibitory concentration (MIC), Ec FADDI-EC006 [2] [µg/mL] | Minimum inhibitory concentration (MIC), Pa ATCC 27853 [4] [µg/mL] | Minimum inhibitory concentration (MIC), Pa FADDI-PA022 [4] [µg/mL] | Minimum inhibitory concentration, Ab A ATCC 17978 [1] [µg/mL] | Minimum inhibitory concentration, Ab ATCC 19606 [1] [µg/mL] | Minimum inhibitory concentration, Ab FADDI-AB034 [1] [µg/mL] | Minimum inhibitory concentration, Ec FADDI-EC001 [2] [µg/mL] | Minimum inhibitory concentration, Ec FADDI-EC003 [2] [µg/mL] | Minimum inhibitory concentration, Ec FADDI-EC006 [2] [µg/mL] | Minimum inhibitory concentration, Pa ATCC 27853 [4] [µg/mL] | Minimum inhibitory concentration, Pa FADDI-PA022 [4] [µg/mL] | Minimum inhibitory concentration, Pa FADDI-PA025 [4] [µg/mL] | further results
1 | CCCCCCCC(=O)N[C@@H](CCN)C(=O)N[C@H](C(=O)N[C@H](CO)C(=O)N[C@H]1CCNC(=O)[C@H]([C@@H](C)O)NC(=O)[C@H](CCN)NC(=O)[C@H](CCN)NC(=O)[C@H](C)NC(=O)[C@@H](CC(C)C)NC(=O)[C@H](CCN)NC1=O)[C@@H](C)O [Compound 2] (Octanoyl-[Dab]T[dS][Dab][Dab][dL]A[Dab][Dab]T; lactam 4-C) | 0.5 (≈ 0.454 µM) | 0.5 (≈ 0.454 µM) | 8 (≈ 7.27 µM) | – | – | – | – | – | – | – | – | 0.5 (≈ 0.454 µM) | 0.5 (≈ 0.454 µM) | 0.5 (≈ 0.454 µM) | <0.125 | <0.125 | 0.5 (≈ 0.454 µM) | 8 (≈ 7.27 µM) | 8 (≈ 7.27 µM) | >32 | –
2 | CCCCCCCC(=O)N[C@@H](CCN)C(=O)N[C@H](C(=O)N[C@H](CO)C(=O)N[C@H]1CCNC(=O)[C@H]([C@@H](C)O)NC(=O)[C@H](CCN)NC(=O)[C@H](CCN)NC(=O)[C@H]([C@@H](C)O)NC(=O)[C@@H](Cc2ccccc2)NC(=O)[C@H](CCN)NC1=O)[C@@H](C)O [Compound 3] (Octanoyl-[Dab]T[dS][Dab][Dab][dF]T[Dab][Dab]T; lactam 4-C) | 0.25 (≈ 0.215 µM) | <0.125 | 4 (≈ 3.44 µM) | – | – | – | – | – | – | – | – | <0.125 | 0.25 (≈ 0.215 µM) | <0.125 | 0.5 (≈ 0.429 µM) | <0.125 | 0.25 (≈ 0.215 µM) | 4 (≈ 3.44 µM) | 4 (≈ 3.44 µM) | >32 | –
3 | CCCCCCCC(=O)N[C@@H](CCN)C(=O)N[C@H](C(=O)N[C@H](CO)C(=O)N[C@H]1CCNC(=O)[C@H]([C@@H](C)O)NC(=O)[C@H](CCN)NC(=O)[C@H](CCN)NC(=O)[C@H](C(C)C)NC(=O)[C@@H](CC(C)C)NC(=O)[C@H](CCN)NC1=O)[C@@H](C)O [Compound 5] (Octanoyl-[Dab]T[dS][Dab][Dab][dL]V[Dab][Dab]T; lactam 4-C) | <0.125 | <0.125 | 2 (≈ 1.77 µM) | – | – | – | – | – | – | – | – | <0.125 | <0.125 | 0.25 (≈ 0.222 µM) | 0.25 (≈ 0.222 µM) | <0.125 | 0.25 (≈ 0.222 µM) | 2 (≈ 1.77 µM) | 4 (≈ 3.54 µM) | 16 (≈ 14.2 µM) | –

Now from value to compound, other results behind:

Row | MIC [1] [µg/mL] | MIC [3] [µg/mL] | MIC [4] [µg/mL] | Minimum inhibitory concentration (MIC), Ab ATCC 17978 [1] [µg/mL] | Minimum inhibitory concentration (MIC), Ab ATCC 19606 [1] [µg/mL] | Minimum inhibitory concentration (MIC), Ab FADDI-AB034 [1] [µg/mL] | Minimum inhibitory concentration (MIC), Ec FADDI-EC001 [2] [µg/mL] | Minimum inhibitory concentration (MIC), Ec FADDI-EC003 [2] [µg/mL] | Minimum inhibitory concentration (MIC), Ec FADDI-EC006 [2] [µg/mL] | Minimum inhibitory concentration (MIC), Pa ATCC 27853 [4] [µg/mL] | Minimum inhibitory concentration (MIC), Pa FADDI-PA022 [4] [µg/mL] | Compound | Minimum inhibitory concentration, Ab A ATCC 17978 [1] [µg/mL] | Minimum inhibitory concentration, Ab ATCC 19606 [1] [µg/mL] | Minimum inhibitory concentration, Ab FADDI-AB034 [1] [µg/mL] | Minimum inhibitory concentration, Ec FADDI-EC001 [2] [µg/mL] | Minimum inhibitory concentration, Ec FADDI-EC003 [2] [µg/mL] | Minimum inhibitory concentration, Ec FADDI-EC006 [2] [µg/mL] | Minimum inhibitory concentration, Pa ATCC 27853 [4] [µg/mL] | Minimum inhibitory concentration, Pa FADDI-PA022 [4] [µg/mL] | Minimum inhibitory concentration, Pa FADDI-PA025 [4] [µg/mL] | further results
4 | – | – | – | 0.25 (≈ 0.212 µM) | 0.5 (≈ 0.425 µM) | 0.25 (≈ 0.212 µM) | <0.125 | <0.125 | <0.125 | 0.5 (≈ 0.425 µM) | 1 (≈ 0.849 µM) | CC[C@@H]1NC(=O)[C@@H](CC(C)C)NC(=O)[C@H](CCN)NC(=O)[C@@H](NC(=O)[C@H](CN)NC(=O)[C@@H](NC(=O)[C@H](CCN)NC(=O)c2ccc(C(F)(F)F)cc2F)[C@@H](C)O)CCNC(=O)[C@H]([C@@H](C)O)NC(=O)[C@H](CCN)NC(=O)[C@H](CCN)NC1=O [Compound 137] (X37-[Dab]T[Dap][Dab][Dab][dL][Abu][Dab][Dab]T; lactam 4-C) | – | – | – | – | – | – | – | – | – | Minimum inhibitory concentration (MIC), Pa FADDI-PA025 [4]: 4 µg/mL (≈ 3.4 µM)
5 | – | – | – | 4 (≈ 3.41 µM) | 16 (≈ 13.6 µM) | 4 (≈ 3.41 µM) | 2 (≈ 1.7 µM) | 1 (≈ 0.852 µM) | 4 (≈ 3.41 µM) | 1 (≈ 0.852 µM) | 1 (≈ 0.852 µM) | CC[C@@H]1NC(=O)[C@@H](CC(C)C)NC(=O)[C@H](CCN)NC(=O)[C@@H](NC(=O)[C@H](CN)NC(=O)[C@@H](NC(=O)[C@H](CCCN)NC(=O)c2cccc(C(F)(F)F)c2)[C@@H](C)O)CCNC(=O)[C@H]([C@@H](C)O)NC(=O)[C@H](CCN)NC(=O)[C@H](CCN)NC1=O [Compound 141] ({Benzoyl(3-CF3)}-[Orn]T[Dap][Dab][Dab][dL][Abu][Dab][Dab]T; lactam 4-C) | – | – | – | – | – | – | – | – | – | Minimum inhibitory concentration (MIC), Pa FADDI-PA025 [4]: 2 µg/mL (≈ 1.7 µM)
